# In article PMC6063448, “Antimicrobial activity of linear lipopeptides derived from BP100 towards plant pathogens” (PLoS ONE, 2018):
# Key:
# Assay type in all cases: cell-based
# [1] = test system: Erwinia amylovora PMV6076; assay: MIC, growth inhibition in microtiter plates (TSB); settings: Ea, 25°C, 48 h, OD 600 nm, lowest concentration with no growth, given as interval of tested concentrations, three replicates, experiment repeated twice
# Description: (§1) The following plant pathogenic bacterial strains were used: Erwinia amylovora PMV6076 (Institut National de la Recherche Agronomique, Angers, France), Pseudomonas syringae pv. syringae EPS94 (Institut de Tecnologia Agroalimentària, Universitat de Girona, Spain), Xanthomonas axonopodis pv. vesicatoria 2133–2, Pseudomonas syringae pv. actinidiae Psa3700.1.1, Xanthomonas fragariae Xf349-9A (Instituto Valenciano de Investigaciones Agrarias, Valencia, Spain), and Xanthomonas arboricola pv. pruni CFBP5563 (Collection Française de Bactéries associées aux Plantes, Angers, France). All bacteria except for X. fragariae were stored in Luria Bertani (LB) broth supplemented with glycerol (20%) and maintained at -80°C. For X. fragariae, Medium B [46] was used instead of LB. E. amylovora, X. arboricola pv. pruni, P. syringae pv. syringae and P. syringae pv. actinidiae were scrapped from the agar media after growing for 24 h at 25°C, and X. axonopodis pv. vesicatoria and X. fragariae after growing for 48 h at 25°C. The cell material was suspended in sterile water to obtain a suspension of 10^8 CFU mL^-1.
# (§2) Lyophilized peptides were solubilized in sterile Milli-Q water to a final concentration of 1 mM and filter sterilized through a 0.22-μm pore filter. […] For antibacterial activity 20 μL of each dilution were mixed in a microtiter plate well with 20 μL of the corresponding suspension of the bacterial indicator, 160 μL of Trypticase Soy Broth (TSB) (BioMèrieux, France) to a total volume of 200 μL. For antifungal activity 20 μL of each stock solution were mixed in a microtiter plate well with 80 μL of the corresponding suspension of the fungal pathogen and 100 μL of double concentrated Potato Dextrose Broth (PDB) to a total volume of 200 μL containing 0.003% w/v of chloramphenicol to prevent bacterial contamination.
# (§3) Three replicates for each combination of strain, compound and concentration were used. Microbial growth was determined by optical density measurement at 600 nm (Bioscreen C, Labsystem, Helsinki, Finland). For antibacterial activity microplates were incubated at 25°C with 20 s shaking before hourly absorbance measurement for 48 h. For antifungal activity microplates were incubated at 22°C with 1 min shaking before absorbance measurement that were done every two hours during seven days. The experiment was repeated twice. The MIC was taken as the lowest compound concentration with no growth at the end of the experiment.
# [2] = test system: Xanthomonas fragariae Xf349-9A; assay: MIC, growth inhibition in microtiter plates (TSB); settings: Xf, 25°C, 48 h, OD 600 nm, lowest concentration with no growth, given as interval of tested concentrations, three replicates, experiment repeated twice
# Description: as §1, §2, §3
# [3] = test system: Pseudomonas syringae pv. actinidiae Psa3700.1.1; assay: MIC, growth inhibition in microtiter plates (TSB); settings: Psa, 25°C, 48 h, OD 600 nm, lowest concentration with no growth, given as interval of tested concentrations, three replicates, experiment repeated twice
# Description: as §1, §2, §3
# [4] = test system: Xanthomonas arboricola pv. pruni CFBP5563; assay: MIC, growth inhibition in microtiter plates (TSB); settings: Xap, 25°C, 48 h, OD 600 nm, lowest concentration with no growth, given as interval of tested concentrations, three replicates, experiment repeated twice
# Description: as §1, §2, §3
# [5] = test system: Xanthomonas axonopodis pv. vesicatoria 2133–2; assay: MIC, growth inhibition in microtiter plates (TSB); settings: Xav, 25°C, 48 h, OD 600 nm, lowest concentration with no growth, given as interval of tested concentrations, three replicates, experiment repeated twice
# Description: as §1, §2, §3
# [6] = test system: Pseudomonas syringae pv. syringae EPS94; assay: MIC, growth inhibition in microtiter plates (TSB); settings: Pss, 25°C, 48 h, OD 600 nm, lowest concentration with no growth, given as interval of tested concentrations, three replicates, experiment repeated twice
# Description: as §1, §2, §3
# [7] = test system: Penicillium expansum EPS26; assay: MIC, antifungal growth inhibition in microtiter plates (PDB); settings: Pe, 22°C, seven days, OD 600 nm, lowest concentration with no growth, given as interval of tested concentrations, three replicates, experiment repeated twice
# Procedure: (§4) The following plant pathogenic fungal strains were used: Penicillium expansum EPS26 (Institut de Tecnologia Agroalimentària, Universitat de Girona, Spain) and Fusarium oxysporum f. sp. lycopersici FOL 3 race 2 (ATCC 201829, American Type Culture Collection,Virginia, EEUU). Strains were cultured on potato dextrose agar (PDA) plates (Difco). Conidia from P. expansum and microconidia from F. oxysporum were obtained from 5–7 day-old agar Potato Dextrose (PDA) cultures after growth at 25°C. Inoculum was prepared by scraping spore material from culture surfaces with a cotton swab and resuspending it in distilled water containing 0.5‰ of tween 80. The suspensions were filtered through Miracloth (Merk, Millipore) and the concentration of conidia was determined using a hemacytometer and adjusted to 10^4 conidia mL^-1 for F. oxysporum and to 10^3 conidia mL^-1 for P. expansum.
# as §2, §3
# [8] = test system: Fusarium oxysporum f. sp. lycopersici FOL 3 race 2; assay: as above; settings: Fo, 22°C, seven days, OD 600 nm, lowest concentration with no growth, given as interval of tested concentrations, three replicates, experiment repeated twice
# Procedure: as §4, §2, §3
structure (smiles),measurement,setting,value
"CCCC(=O)NCCCC[C@H](NC(C)=O)C(=O)N[C@@H](CCCCN)C(=O)N[C@@H](CC(C)C)C(=O)N[C@@H](Cc1ccccc1)C(=O)N[C@@H](CCCCN)C(=O)N[C@@H](CCCCN)C(=O)N[C@H](C(=O)N[C@@H](CC(C)C)C(=O)N[C@@H](CCCCN)C(=O)N[C@@H](Cc1ccc(O)cc1)C(=O)N[C@@H](CC(C)C)C(N)=O)[C@@H](C)CC [BP380, Ac-K(COC3H7)KLFKKILKYL-NH2]",MIC,[1],3.1 to 6.2 µM
same,MIC,[2],3.1 to 6.2 µM
same,MIC,[3],6.2 to 12.5 µM
same,MIC,[4],3.1 to 6.2 µM
same,MIC,[5],3.1 to 6.2 µM
same,MIC,[6],6.2 to 12.5 µM
same,MIC,[7],3.1 to 6.2 µM
same,MIC,[8],0.8 to 1.6 µM
"CCCCCC(=O)NCCCC[C@H](NC(=O)[C@H](CC(C)C)NC(=O)[C@@H](NC(=O)[C@H](CCCCN)NC(=O)[C@H](CCCCN)NC(=O)[C@H](Cc1ccccc1)NC(=O)[C@H](CC(C)C)NC(=O)[C@H](CCCCN)NC(=O)[C@H](CCCCN)NC(C)=O)[C@@H](C)CC)C(=O)N[C@@H](Cc1ccc(O)cc1)C(=O)N[C@@H](CC(C)C)C(N)=O [BP376, Ac-KKLFKKILK(COC5H11)YL-NH2]",MIC,[1],6.2 to 12.5 µM
same,MIC,[2],3.1 to 6.2 µM
same,MIC,[3],3.1 to 6.2 µM
same,MIC,[4],6.2 to 12.5 µM
same,MIC,[5],6.2 to 12.5 µM
same,MIC,[6],12.5 to 25 µM
same,MIC,[7],3.1 to 6.2 µM
same,MIC,[8],0.4 to 0.8 µM
"CCCCCC(=O)NCCCC[C@H](NC(=O)[C@H](CCCCN)NC(=O)[C@H](Cc1ccccc1)NC(=O)[C@H](CC(C)C)NC(=O)[C@H](CCCCN)NC(=O)[C@H](CCCCN)NC(C)=O)C(=O)N[C@H](C(=O)N[C@@H](CC(C)C)C(=O)N[C@@H](CCCCN)C(=O)N[C@@H](Cc1ccc(O)cc1)C(=O)N[C@@H](CC(C)C)C(N)=O)[C@@H](C)CC [BP373, Ac-KKLFKK(COC5H11)ILKYL-NH2]",MIC,[1],3.1 to 6.2 µM
same,MIC,[2],3.1 to 6.2 µM
same,MIC,[3],3.1 to 6.2 µM
same,MIC,[4],3.1 to 6.2 µM
same,MIC,[5],6.2 to 12.5 µM
same,MIC,[6],6.2 to 12.5 µM
same,MIC,[7],3.1 to 6.2 µM
same,MIC,[8],0.4 to 0.8 µM
"CCCCCC(=O)NCCCC[C@H](NC(=O)[C@@H](NC(=O)[C@H](CCCCN)NC(=O)[C@H](CCCCN)NC(=O)[C@H](Cc1ccccc1)NC(=O)[C@H](CC(C)C)NC(=O)[C@H](CCCCN)NC(=O)[C@H](CCCCN)NC(C)=O)[C@@H](C)CC)C(=O)N[C@@H](CCCCN)C(=O)N[C@@H](Cc1ccc(O)cc1)C(=O)N[C@@H](CC(C)C)C(N)=O [BP375, Ac-KKLFKKIK(COC5H11)KYL-NH2]",MIC,[1],3.1 to 6.2 µM
same,MIC,[2],3.1 to 6.2 µM
same,MIC,[3],3.1 to 6.2 µM
same,MIC,[4],3.1 to 6.2 µM
same,MIC,[5],6.2 to 12.5 µM
same,MIC,[6],3.1 to 6.2 µM
same,MIC,[7],3.1 to 6.2 µM
same,MIC,[8],0.4 to 0.8 µM
"CCCCCCCCCCCC(=O)NCCCC[C@H](NC(=O)[C@H](CCCCN)NC(=O)[C@H](Cc1ccccc1)NC(=O)[C@H](CC(C)C)NC(=O)[C@H](CCCCN)NC(=O)[C@H](CCCCN)NC(C)=O)C(=O)N[C@H](C(=O)N[C@@H](CC(C)C)C(=O)N[C@@H](CCCCN)C(=O)N[C@@H](Cc1ccc(O)cc1)C(=O)N[C@@H](CC(C)C)C(N)=O)[C@@H](C)CC [BP397, Ac-KKLFKK(COC11H23)ILKYL-NH2]",MIC,[1],>25 µM
same,MIC,[2],1.6 to 3.1 µM
same,MIC,[3],>25 µM
same,MIC,[4],3.1 to 6.2 µM
same,MIC,[5],6.2 to 12.5 µM
same,MIC,[6],>25 µM
same,MIC,[7],12.5 to 25 µM
same,MIC,[8],6.2 to 12.5 µM
"CCCC(=O)NCCCC[C@H](NC(=O)[C@H](Cc1ccccc1)NC(=O)[C@H](CC(C)C)NC(=O)[C@H](CCCCN)NC(=O)[C@H](CCCCN)NC(C)=O)C(=O)N[C@@H](CCCCN)C(=O)N[C@H](C(=O)N[C@@H](CC(C)C)C(=O)N[C@@H](CCCCN)C(=O)N[C@@H](Cc1ccc(O)cc1)C(=O)N[C@@H](CC(C)C)C(N)=O)[C@@H](C)CC [BP384, Ac-KKLFK(COC3H7)KILKYL-NH2]",MIC,[1],3.1 to 6.2 µM
same,MIC,[2],1.6 to 3.1 µM
same,MIC,[3],6.2 to 12.5 µM
same,MIC,[4],3.1 to 6.2 µM
same,MIC,[5],1.6 to 3.1 µM
same,MIC,[6],6.2 to 12.5 µM
same,MIC,[7],12.5 to 25 µM
same,MIC,[8],1.6 to 3.1 µM
"CCCC(=O)NCCCC[C@H](NC(=O)[C@H](CC(C)C)NC(=O)[C@@H](NC(=O)[C@H](CCCCN)NC(=O)[C@H](CCCCN)NC(=O)[C@H](Cc1ccccc1)NC(=O)[C@H](CC(C)C)NC(=O)[C@H](CCCCN)NC(=O)[C@H](CCCCN)NC(C)=O)[C@@H](C)CC)C(=O)N[C@@H](Cc1ccc(O)cc1)C(=O)N[C@@H](CC(C)C)C(N)=O [BP388, Ac-KKLFKKILK(COC3H7)YL-NH2]",MIC,[1],3.1 to 6.2 µM
same,MIC,[2],1.6 to 3.1 µM
same,MIC,[3],6.2 to 12.5 µM
same,MIC,[4],3.1 to 6.2 µM
same,MIC,[5],1.6 to 3.1 µM
same,MIC,[6],6.2 to 12.5 µM
same,MIC,[7],6.2 to 12.5 µM
same,MIC,[8],0.8 to 1.6 µM
"CCCC(=O)NCCCC[C@H](NC(=O)[C@H](CCCCN)NC(=O)[C@H](CCCCN)NC(C)=O)C(=O)N[C@@H](Cc1ccccc1)C(=O)N[C@@H](CCCCN)C(=O)N[C@@H](CCCCN)C(=O)N[C@H](C(=O)N[C@@H](CC(C)C)C(=O)N[C@@H](CCCCN)C(=O)N[C@@H](Cc1ccc(O)cc1)C(=O)N[C@@H](CC(C)C)C(N)=O)[C@@H](C)CC [BP382, Ac-KKK(COC3H7)FKKILKYL-NH2]",MIC,[1],6.2 to 12.5 µM
same,MIC,[2],1.6 to 3.1 µM
same,MIC,[3],6.2 to 12.5 µM
same,MIC,[4],6.2 to 12.5 µM
same,MIC,[5],6.2 to 12.5 µM
same,MIC,[6],6.2 to 12.5 µM
same,MIC,[7],3.1 to 6.2 µM
same,MIC,[8],0.8 to 1.6 µM
"CCCCCCCCCCCC(=O)NCCCC[C@H](NC(=O)[C@H](CCCCN)NC(=O)[C@H](CC(C)C)NC(=O)[C@@H](NC(=O)[C@H](CCCCN)NC(=O)[C@H](CCCCN)NC(=O)[C@H](Cc1ccccc1)NC(=O)[C@H](CC(C)C)NC(=O)[C@H](CCCCN)NC(=O)[C@H](CCCCN)NC(C)=O)[C@@H](C)CC)C(=O)N[C@@H](CC(C)C)C(N)=O [BP401, Ac-KKLFKKILKK(COC11H23)L-NH2]",MIC,[1],>25 µM
same,MIC,[2],3.1 to 6.2 µM
same,MIC,[3],6.2 to 12.5 µM
same,MIC,[4],1.6 to 3.1 µM
same,MIC,[5],0.8 to 1.6 µM
same,MIC,[6],6.2 to 12.5 µM
same,MIC,[7],12.5 to 25 µM
same,MIC,[8],6.2 to 12.5 µM
"CCCCCC(=O)NCCCC[C@H](NC(=O)[C@H](CCCCN)NC(C)=O)C(=O)N[C@@H](CC(C)C)C(=O)N[C@@H](Cc1ccccc1)C(=O)N[C@@H](CCCCN)C(=O)N[C@@H](CCCCN)C(=O)N[C@H](C(=O)N[C@@H](CC(C)C)C(=O)N[C@@H](CCCCN)C(=O)N[C@@H](Cc1ccc(O)cc1)C(=O)N[C@@H](CC(C)C)C(N)=O)[C@@H](C)CC [BP369, Ac-KK(COC5H11)LFKKILKYL-NH2]",MIC,[1],6.2 to 12.5 µM
same,MIC,[2],3.1 to 6.2 µM
same,MIC,[3],3.1 to 6.2 µM
same,MIC,[4],0.8 to 1.6 µM
same,MIC,[5],3.1 to 6.2 µM
same,MIC,[6],6.2 to 12.5 µM
same,MIC,[7],1.6 to 3.1 µM
same,MIC,[8],0.4 to 0.8 µM
